Laboratory results taken from ChEMBL document CHEMBL1212803, “Resistance-associated mutations to etravirine (TMC-125) in antiretroviral-naïve patients infected with non-B HIV-1 subtypes” (2010).

Tests used:
Type in all cases: functional
[1] = tested on: Human immunodeficiency virus 1; assay: Antiviral activity against HIV-1 subtype CRF02_AG containing reverse transcriptase E138A/K20R, V35T, E36A, T39D, V60I, I135V, T139I, K173A, Q174K, T200E, Q207A, R211K, F214L mutant relative to control
[2] = tested on: Human immunodeficiency virus 1; assay: Antiviral activity against HIV-1 subtype CRF02_AG containing reverse transcriptase V90I,A98G/V35T, E36D, T39K, S48A, I50V, V60I, S68G, I135V, S162A, K173T, Q174K, D177E, G196E, T200A, E203G, Q207D, R211K, Q222P mutant relative to control
[3] = tested on: Human immunodeficiency virus 1; assay: Antiviral activity against HIV-1 subtype CRF02_AG containing reverse transcriptase V90I,Y181C/V35T, T39M, P119S, D123E, S162A, E169D, K173T, Q174K, D177E, T200A, Q207E, K219N, V245Q, E248D mutant relative to control
[4] = tested on: Human immunodeficiency virus 1; assay: Antiviral activity against HIV-1 subtype CRF02_AG containing reverse transcriptase V90I/V35T, T39M, K46Q, V60I, S68G, D123E, I135V, S162A, K173A, Q174K,D177E, T200A, Q207E, R211K mutant relative to control
[5] = tested on: Human immunodeficiency virus 1; assay: Antiviral activity against HIV-1 subtype CRF02_AG containing reverse transcriptase Y181C/V35T, V60I, I135V, S162A, K173T, Q174K, N175Y, D177E, T200A, Q207E, R211K, H221Y mutant relative to control
[6] = tested on: Human immunodeficiency virus 1; assay: Antiviral activity against HIV-1 subtype CRF02_AG containing reverse transcriptase A98G/V35T, V60I, I135L, S162A, K173A, Q174K, D177E, I178M, T200A,Q207E, R211K, V245Q, D250E mutant relative to control
[7] = tested on: Human immunodeficiency virus 1; assay: Antiviral activity against HIV-1 subtype CRF02_AG containing reverse transcriptase V90I/V35T, E36D, V60I, K122E, D123S, I135V, E138D, S162A, K173T,Q174S, D177E, I178M, V189I, T200A, I202V, Q207E, F214L, V245Q mutant relative to control
[8] = tested on: Human immunodeficiency virus 1; assay: Antiviral activity against HIV-1 subtype CRF02_AG containing reverse transcriptase E138A/K20R, V35T, E36D, T39N, V60I, D123N, I135V, S162A, K173T, Q174K, D177E, T200A, Q207E, R211K mutant relative to control
[9] = tested on: Human immunodeficiency virus 1; assay: Antiviral activity against HIV-1 subtype CRF02_AG containing reverse transcriptase K101E/K30E, I31P, V35Q, T39S, E44G, E53G, A62G, N81H, Q91H,I135V,S162A, K173S, Q174R, D177E, V179I, T200I, Q207N, R211K, F214L mutant relative to control

## Cc1cc(C#N)cc(C)c1Oc1nc(Nc2ccc(C#N)cc2)nc(N)c1Br [ETRAVIRINE]
[1]
  Ratio IC50: 3
[2]
  Ratio IC50: 1.2
[3]
  Ratio IC50: 3.3
[4]
  Ratio IC50: 1.6
[5]
  Ratio IC50: 11.1
[6]
  Ratio IC50: 2.9
[7]
  Ratio IC50: 1.3
[8]
  Ratio IC50: 1.7
[9]
  Ratio IC50: 1.3

## Cc1ccnc2c1NC(=O)c1cccnc1N2C1CC1 [NEVIRAPINE]
[1]
  Ratio IC50: 0.5
[2]
  Ratio IC50: 2.4
[3]
  Ratio IC50: >70.9
[4]
  Ratio IC50: 1.3
[5]
  Ratio IC50: >49.6
[6]
  Ratio IC50: 8.3
[7]
  Ratio IC50: 0.7
[8]
  Ratio IC50: 0.4
[9]
  Ratio IC50: 2.2
